# Experimental data published in patent publication US8263584B2, “Imidazopyridines” (Hoffmann-La Roche Inc., priority 2009, dated 2012).
# Target: T1, PDE10A2 (Homo sapiens, UniProt Q9Y233)
# T1 construct: residues serine 449 to aspartate 789; His6 (H6) with Gateway linker and thrombin cleavage site (N, cleaved yes); made in house; host or cells: E. coli BL21(DE3) pLysS
# Assay: PDE10A2 inhibition, Scintillation Proximity Assay (SPA)
# Type: biochemical
# Settings: catalytic domain of human PDE10A2 (S449-D789), 0.25 nM enzyme, 50 nM cGMP and 50 nM [3H]-cGMP, 30 minutes at room temperature
# Description: The following tests were carried out in order to determine the activity of the compounds of the present invention. PDE10 activity of the compounds of the present invention is determined using a Scintillation Proximity Assay (SPA)-based method similar to the one previously described (Fawcett, L. et al., Proc Natl Acad Sci USA (2000) 97(7):3702-3707). PDE10A1 and PDE10A2 are two splice variants of PDE10A. There are these 2 splice variants known, which differ in the N-terminal part of the protein. The catalytic domains of PDE10A1 and PDE10A2 are identical. The assay for PDE10A2 described below is therefore also representative for PDE10A1 and also for PDE10A in general. The PDE10A2 assay was performed in a two step procedure in 96-well micro titer plates. […] A range of concentrations of the potential inhibitor was used to generate data for calculating the concentration of inhibitor resulting in 50% of the effect (e.g. IC50, the concentration of the competitor inhibiting PDE10A2 activity 50%). Non-specific activity was tested without the enzyme. The reaction was initiated by addition of the substrate solution (cGMP and [^3H]-cGMP) and allowed to progress for 30 minutes at room temperature. The reaction was terminated by transferring 50 μl of the reaction mixture into an OptiPlate (Perkin Elmer) containing 25 μl of YSi-SPA scintillation beads (GE Healthcare) in 18 mM zinc sulphate solution (stop reagent). After 1 h under shaking, the plate was centrifuged one minute at 1000 rpm to allow beads to settle. Afterwards, radioactive counts were measured on a Perkin Elmer TopCount Scintillation plate reader. The catalytic domain of human PDE10[…], was amplified by PCR using cDNA (Origene) and the oligonucleotides 5'-[…]00001:character} […] no. 1) (with AttB1 recombination site in bold and thrombin protease cleavage site in […] no. 2) (with AttB2 recombination site in bold) which conferred Gateway recombination sites. The PCR product was used in a BP recombination reaction with pDONR221 to generate […]([…]-[…]) which was DNA sequence verified and then used in an LR recombination reaction with a Gateway modified version of pET11a. […] About 30% of the protein was in the soluble fraction of the cell homogenate. The protein was purified using sequential chromatography on Ni-NTA and […]. After thrombin digest at room temperature a […]/HiTrap Benzamindin chromatography removed impurities, uncleaved protein and thrombin. Final purification of PDE10A2([…]-[…]) was performed on a Superdex 75 size exclusion chromatography equilibrated with 25 mM HEPES pH 8.4, 0.15 M NaCl. The yield of pure protein was 2 mg/liter of culture volume is relatively low. The purity of the protein was >95%, monomeric and monodisperse as shown by SDS-PAGE, HPLC and analytical ultracentrifugation.
# T1 sequence (Q9Y233 715-1055): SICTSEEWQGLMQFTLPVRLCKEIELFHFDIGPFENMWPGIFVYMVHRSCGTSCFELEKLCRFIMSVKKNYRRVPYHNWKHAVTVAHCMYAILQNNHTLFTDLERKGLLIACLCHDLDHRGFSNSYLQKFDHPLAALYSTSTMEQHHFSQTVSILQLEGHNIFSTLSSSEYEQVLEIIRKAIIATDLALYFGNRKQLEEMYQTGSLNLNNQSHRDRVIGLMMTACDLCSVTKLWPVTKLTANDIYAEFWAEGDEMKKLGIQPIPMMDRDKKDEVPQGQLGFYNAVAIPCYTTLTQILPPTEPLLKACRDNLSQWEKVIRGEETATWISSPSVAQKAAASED
row,Structure (SMILES),IC50
1,"Cn1ncc(C(=O)NCC2CCCO2)c1C(=O)Nc1ccn2cc(-c3ccccc3)nc2c1 (stereo not drawn) [Example 37, 2-Methyl-2H-pyrazole-3,4-dicarboxylic acid 3-[(2-phenyl-imidazo[1,2-a]pyridin-7-yl)-amide]-4-[(tetrahydro-furan-2-ylmethyl)-amide]]",3.5 nM
2,"Cn1ncc(Cl)c1C(=O)Nc1ccn2cc(-c3nccs3)nc2c1 [Example 5, 4-Chloro-2-methyl-2H-pyrazole-3-carboxylic acid (2-thiazol-2-yl-imidazo[1,2-a]pyridin-7-yl)-amide]",45 nM
3,"CN1CCN(C(=O)c2cnn(C)c2C(=O)Nc2ccn3cc(-c4ccccc4)nc3c2)CC1 [Example 52, 2-Methyl-4-(4-methyl-piperazine-1-carbonyl)-2H-pyrazole-3-carboxylic acid (2-phenyl-imidazo[1,2-a]pyridin-7-yl)-amide]",4.7 nM
4,"CCOC(=O)c1cnn(C)c1C(=O)Nc1ccn2cc(-c3ccccc3)nc2c1 [Example 10, 1-Methyl-5-(2-phenyl-imidazo[1,2-a]pyridin-7-ylcarbamoyl)-1H-pyrazole-4-carboxylic acid ethyl ester]",2.7 nM
5,"Cn1ncc(C(=O)N2CCOCC2)c1C(=O)Nc1cc2nc(-c3ccccc3)cn2cc1C#N [Example 69, 2-Methyl-4-(morpholine-4-carbonyl)-2H-pyrazole-3-carboxylic acid (6-cyano-2-phenyl-imidazo[1,2-a]pyridin-7-yl)-amide]",1 nM
6,"CNC(=O)c1cnn(C)c1C(=O)Nc1cc2nc(-c3ccccc3)cn2cn1 [Example 84, 2-Methyl-2H-pyrazole-3,4-dicarboxylic acid 4-methylamide 3-[(2-phenyl-imidazo[1,2-c]pyrimidin-7-yl)-amide]]",2.7 nM
7,"Cn1ncc(C(=O)N2CC(F)(F)C2)c1C(=O)Nc1ccn2cc(-c3ccccc3)nc2c1 [Example 17, 4-(3,3-Difluoro-azetidine-1-carbonyl)-2-methyl-2H-pyrazole-3-carboxylic acid (2-phenyl-imidazo[1,2-a]pyridin-7-yl)-amide]",0.3 nM
8,"Cn1ncc(C(=O)NCC2(CO)COC2)c1C(=O)Nc1ccn2cc(-c3ccccc3)nc2c1 [Example 33, 2-Methyl-2H-pyrazole-3,4-dicarboxylic acid 4-[(3-hydroxymethyl-oxetan-3-ylmethyl)-amide]3-[(2-phenyl-imidazo[1,2-a]pyridin-7-yl)-amide]]",2.3 nM
9,"Cn1ncc(C(=O)Nc2ccncc2)c1C(=O)Nc1ccn2cc(-c3ccccc3)nc2c1 [Example 55, 2-Methyl-2H-pyrazole-3,4-dicarboxylic acid 3-[(2-phenyl-imidazo[1,2-a]pyridin-7-yl)-amide]-4-pyridin-4-ylamide]",4.3 nM
10,"Cn1ncc(C(=O)N2CCC2)c1C(=O)Nc1cc2nc(-c3ccccc3)cn2cc1C1CC1 [Example 74, 4-(Azetidine-1-carbonyl)-2-methyl-2H-pyrazole-3-carboxylic acid (6-cyclopropyl-2-phenyl-imidazo[1,2-a]pyridin-7-yl)-amide]",0.7 nM
11,"CCOC(=O)c1cn[nH]c1C(=O)Nc1ccn2cc(-c3ccccc3)nc2c1 [Example 11, 5-(2-Phenyl-imidazo[1,2-a]pyridin-7-ylcarbamoyl)-1H-pyrazole-4-carboxylic acid ethyl ester]",10.7 nM
12,"Cn1ncc(C(=O)N2CCS(=O)(=O)CC2)c1C(=O)Nc1ccn2cc(-c3ccccc3)nc2c1 [Example 48, 4-(1,1-Dioxo-thiomorpholine-4-carbonyl)-2-methyl-2H-pyrazole-3-carboxylic acid (2-phenyl-imidazo[1,2-a]pyridin-7-yl)-amide]",0.8 nM
13,"CCn1ncc(C(=O)N2CCC2)c1C(=O)Nc1ccn2cc(-c3ccccc3)nc2c1 [Example 62, 4-(Azetidine-1-carbonyl)-2-ethyl-2H-pyrazole-3-carboxylic acid (2-phenyl-imidazo[1,2-a]pyridin-7-yl)-amide]",12.6 nM
14,"CNCCN(C)C(=O)c1cnn(C)c1C(=O)Nc1ccn2cc(-c3ccccc3)nc2c1 [Example 21, 2-Methyl-2H-pyrazole-3,4-dicarboxylic acid 4-[methyl-(2-methylamino-ethyl)-amide]3-[(2-phenyl-imidazo[1,2-a]pyridin-7-yl)-amide]]",2.1 nM
15,"Cn1ncc(C(=O)N2CCOCC2)c1C(=O)Nc1cc2nc(-c3ccccc3)cn2cc1C1CC1 [Example 75, 2-Methyl-4-(morpholine-4-carbonyl)-2H-pyrazole-3-carboxylic acid (6-cyclopropyl-2-phenyl-imidazo[1,2-a]pyridin-7-yl)-amide]",1 nM
16,"Cn1ncc(C(=O)N2CCOCC2)c1C(=O)Nc1cc2nc(-c3ccccc3)cn2cc1Cl [Example 72, 2-Methyl-4-(morpholine-4-carbonyl)-2H-pyrazole-3-carboxylic acid (6-chloro-2-phenyl-imidazo[1,2-a]pyridin-7-yl)-amide]",0.8 nM
17,"CN(C)C(=O)c1cnn(C)c1C(=O)Nc1cc2nc(-c3ccccc3)cn2cn1 [Example 82, 2-Methyl-2H-pyrazole-3,4-dicarboxylic acid 4-dimethylamide 3-[(2-phenyl-imidazo[1,2-c]pyrimidin-7-yl)-amide]]",0.1 nM
18,"Cn1ncc(Cl)c1C(=O)Nc1ccn2cc(-c3ccccc3)nc2c1 [Example 1, 4-Chloro-2-methyl-2H-pyrazole-3-carboxylic acid (2-phenyl-imidazo[1,2-a]pyridin-7-yl)-amide]",25.2 nM
19,"CN(C)C1CCN(C(=O)c2cnn(C)c2C(=O)Nc2ccn3cc(-c4ccccc4)nc3c2)C1 (stereo not drawn) [Example 59, 4-(3-Dimethylamino-pyrrolidine-1-carbonyl)-2-methyl-2H-pyrazole-3-carboxylic acid (2-phenyl-imidazo[1,2-a]pyridin-7-yl)-amide]",0.6 nM
20,"Cn1ncc(C(=O)N2CCOCC2)c1C(=O)Nc1cc2nc(-c3ccccc3)cn2cn1 [Example 89, 2-Methyl-4-(morpholine-4-carbonyl)-2H-pyrazole-3-carboxylic acid (2-phenyl-imidazo[1,2-c]pyrimidin-7-yl)-amide]",0.1 nM
21,"Cn1ncc(C(=O)N2CCC2)c1C(=O)Nc1cc2nc(-c3ccccc3)cn2cn1 [Example 86, 4-(Azetidine-1-carbonyl)-2-methyl-2H-pyrazole-3-carboxylic acid (2-phenyl-imidazo[1,2-c]pyrimidin-7-yl)-amide]",0.3 nM
22,"Cn1ncc(C(=O)N2CCn3cnnc3C2)c1C(=O)Nc1ccn2cc(-c3ccccc3)nc2c1 [Example 27, 4-(5,6-Dihydro-8H-[1,2,4]triazolo[4,3-a]pyrazine-7-carbonyl)-2-methyl-2H-pyrazole-3-carboxylic acid (2-phenyl-imidazo[1,2-a]pyridin-7-yl)-amide]",11.5 nM
23,"Cn1ncc(C(N)=O)c1C(=O)Nc1ccn2cc(-c3ccccc3)nc2c1 [Example 2, 2-Methyl-2H-pyrazole-3,4-dicarboxylic acid 4-amide 3-[(2-phenyl-imidazo[1,2-a]pyridin-7-yl)-amide]]",3.9 nM
24,"Cn1ncc(C(=O)N2CCOCC2CO)c1C(=O)Nc1ccn2cc(-c3ccccc3)nc2c1 (stereo not drawn) [Example 53, 4-(3-Hydroxymethyl-morpholine-4-carbonyl)-2-methyl-2H-pyrazole-3-carboxylic acid (2-phenyl-imidazo[1,2-a]pyridin-7-yl)-amide]",3.3 nM
25,"Cn1ncc(C(=O)NC(C)(C)C)c1C(=O)Nc1ccn2cc(-c3ccccc3)nc2c1 [Example 24, 2-Methyl-2H-pyrazole-3,4-dicarboxylic acid 4-tert-butylamide 3-[(2-phenyl-imidazo[1,2-a]pyridin-7-yl)-amide]]",2.3 nM
26,"CNC(=O)c1cn[nH]c1C(=O)Nc1ccn2cc(-c3ccccc3)nc2c1 [Example 65, 2H-Pyrazole-3,4-dicarboxylic acid 4-methylamide 3-[(2-phenyl-imidazo[1,2-a]pyridin-7-yl)-amide]]",41.8 nM
27,"CC(CO)NC(=O)c1cnn(C)c1C(=O)Nc1ccn2cc(-c3ccccc3)nc2c1 (stereo not drawn) [Example 36, 2-Methyl-2H-pyrazole-3,4-dicarboxylic acid 4-[(2-hydroxy-1-methyl-ethyl)-amide]3-[(2-phenyl-imidazo[1,2-a]pyridin-7-yl)-amide]]",1.9 nM
